Results from ChEMBL document CHEMBL1201862, “PubChem BioAssay data set” (2004).
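Exposure lasted 48 hours, with cells grown in 96-well plates and compounds tested at five concentrations. Abbreviation: GI50, concentration required for 50% inhibition of growth.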 The source made the active and inactive calls. No stated cut-off is given here; in the data, active = GI50 up to about 1.1 µM and inactive = higher.

Legend:
Test in all cases: growth of human tumour cells (NCI), 48 h
[1] = tested on: OVCAR-3
[2] = tested on: KM12
[3] = tested on: HCT-15
[4] = tested on: SF-268
[5] = tested on: OVCAR-5
[6] = tested on: U-251
[7] = tested on: A549
[8] = tested on: SNB-19
[9] = tested on: IGROV-1
[10] = tested on: SW-620
[11] = tested on: MOLT-4
[12] = tested on: SF-295
[13] = tested on: HCC 2998
[14] = tested on: SNB-75
[15] = tested on: NCI/ADR-RES
[16] = tested on: BT-549
[17] = tested on: MDA-MB-435
[18] = tested on: MCF7
[19] = tested on: NCI-H23
[20] = tested on: HOP-92

Row | SMILES | GI50 [1] | GI50 [2] | GI50 [3] [µM] | GI50 [4] | GI50 [5] | GI50 [6] | GI50 [7] | GI50 [8] | GI50 [9] | GI50 [10] | GI50 [11] | GI50 [12] | GI50 [13] | GI50 [14] | GI50 [15] | GI50 [16] | GI50 [17] | GI50 [18] | GI50 [19] | GI50 [20]
1 | O=C1CCCC2=C1CC1=C(CCCC1=O)N2c1ccc(Cl)cc1 | > 100 µM (inactive) | > 100 µM (inactive) | > 100 | > 100 µM (inactive) | > 100 µM (inactive) | > 100 µM (inactive) | > 100 µM (inactive) | > 100 µM (inactive) | > 100 µM (inactive) | > 100 µM (inactive) | 94.6 µM (inactive) | > 100 µM (inactive) | > 100 µM (inactive) | > 100 µM (inactive) | > 100 µM (inactive) | > 100 µM (inactive) | > 100 µM (inactive) | > 100 µM (inactive) | > 100 µM (inactive) | 
2 | O=C(Cn1c(=O)oc2ccccc21)N(c1ccccc1)c1ccccc1 | > 100 µM (inactive) | > 100 µM (inactive) | > 100 | 67.5 µM (inactive) | > 100 µM (inactive) | 95.1 µM (inactive) |  | > 100 µM (inactive) | 26.5 µM (inactive) | > 100 µM (inactive) | > 100 µM (inactive) | > 100 µM (inactive) |  | 11.5 µM (inactive) | 77.6 µM (inactive) | > 100 µM (inactive) | > 100 µM (inactive) | > 100 µM (inactive) | > 100 µM (inactive) | 
3 | N#Cc1c(-c2ccccc2)c(/N=N/c2ccc(Cl)cc2)c(=O)n2c1[nH]c1ccccc12 | > 100 µM (inactive) | 44.2 µM (inactive) | > 100 | 79.1 µM (inactive) | > 100 µM (inactive) | 21.2 µM (inactive) | > 100 µM (inactive) | > 100 µM (inactive) | 73.1 µM (inactive) | > 100 µM (inactive) |  | 76.7 µM (inactive) | 52.6 µM (inactive) | 71 µM (inactive) | 92.9 µM (inactive) | > 100 µM (inactive) | > 100 µM (inactive) | > 100 µM (inactive) | > 100 µM (inactive) | 
4 | CC(=O)n1[nH]c(=O)n(-c2ccc(Cl)cc2)c1=O | > 100 µM (inactive) | > 100 µM (inactive) | > 100 | > 100 µM (inactive) | > 100 µM (inactive) | > 100 µM (inactive) | > 100 µM (inactive) | > 100 µM (inactive) | > 100 µM (inactive) | > 100 µM (inactive) | > 100 µM (inactive) | > 100 µM (inactive) | > 100 µM (inactive) |  | > 100 µM (inactive) | > 100 µM (inactive) | > 100 µM (inactive) | > 100 µM (inactive) | > 100 µM (inactive) | 
5 | CC(=O)Oc1cc2oc(=O)cc(C)c2cc1OC(C)=O | 33.1 µM (inactive) | 68.7 µM (inactive) | 38.5 | 36.6 µM (inactive) | > 100 µM (inactive) | 51.1 µM (inactive) | 37.3 µM (inactive) | > 100 µM (inactive) | 27.9 µM (inactive) | 46.2 µM (inactive) | 74.8 µM (inactive) | 41.8 µM (inactive) |  | 48.4 µM (inactive) | 32.4 µM (inactive) |  | 48.4 µM (inactive) | 38.8 µM (inactive) | 75.2 µM (inactive) | 
6 | CCOC(=O)CCC(NC(=O)c1ccc(Oc2nc3ccccc3nc2-c2ccccc2)cc1)C(=O)OCC (configuration not stated) | 15.4 µM (inactive) | 33.3 µM (inactive) | > 100 | 6.79 µM (inactive) | > 55 µM (inactive) | 15.1 µM (inactive) | 37.8 µM (inactive) | 22 µM (inactive) | 35.4 µM (inactive) | > 100 µM (inactive) | > 100 µM (inactive) | 23.1 µM (inactive) | > 100 µM (inactive) | 8.85 µM (inactive) | 6.34 µM (inactive) |  | > 52.1 µM (inactive) | > 100 µM (inactive) | 17.4 µM (inactive) | 5.51 µM (inactive)
7 | O=C(NC(O)(C(F)(F)F)C(F)(F)F)c1ccccc1 | > 100 µM (inactive) | > 100 µM (inactive) | > 100 | > 100 µM (inactive) | > 100 µM (inactive) | > 100 µM (inactive) | > 100 µM (inactive) | > 100 µM (inactive) | > 100 µM (inactive) | > 100 µM (inactive) | > 100 µM (inactive) | > 100 µM (inactive) | > 100 µM (inactive) | > 100 µM (inactive) | > 100 µM (inactive) |  | > 100 µM (inactive) | > 100 µM (inactive) | > 100 µM (inactive) | > 100 µM (inactive)
